Patent US10925856B2, “Methods and compositions involving bucindolol for the treatment of atrial fibrillation” (priority 2018, dated 2021)

What was measured:
[1] = Systolic blood pressure and heart rate by scheduled visit; type: in vivo, human
Text: Block is defined as the first of any of the following: 1) 3rd degree heart block (complete heart block); 2) any 2nd degree heart block with the presence of symptoms attributable to, and temporally correlated with the occurrence of heart block which include any of the following: Near-fainting or fainting (syncope)/Dizziness; Weakness or Fatigue; Shortness of breath; Chest pain; or 3) 2nd or 3rd degree heart block requiring implantation of a permanent pacemaker (with or without defibrillator). • Data source: • CVEVENT and AE eCRF forms. • Overall incidence and severity of treatment-emergent AEs/SAEs over time during the Total Study Period. Also events associated with device implantation. […] The AEs of special interest will be tabulated according to the following characteristics. • Development of treatment-emergent neoplastic conditions. • Progression or worsening of pre-study neoplastic conditions. • Progression or worsening of treatment-emergent neoplastic conditions. • Data source: • AE, NEOPLHX and NEOPLAS eCRF forms. • Clinical Chemistry and Hematology. • Visit collection: screen, start of follow-up Week 0 (protocol versions 1 and 2), Week 4 (protocol versions 3 and 4), Week 12 (protocol versions 3 and 4), Week 24, every 24 weeks during extension, end of treatment and end of study. […] Randomization Visit measurement prior to first dose will serve as the baseline. Will be analyzed at Week 0, 4, 12 and 24 visits as well as end of treatment and end of study. • Change from baseline to each analysis visit will be calculated and analyzed with descriptive statistics. • The numbers and percentages of patients with QTc increase from baseline exceeding 60 ms at any time point during the study. • Data source: • ECG eCRF form. • Vital signs and weight (data source: VITALS eCRF form). • Measured at every in-clinic visit. Randomization Visit measurement prior to first dose will serve as the baseline. Will be analyzed at Week 0, 4, 12 and 24 visits as well as end of treatment and end of study. • Change from baseline to each analysis visit will be calculated and analyzed with descriptive statistics. • Data source: • VITALS eCRF form. • Proportion of patients attaining target study drug dose during the Drug Titration Period. Will be calculated for all patients, those receiving β-blocker therapy prior to randomization and those not previously receiving β-blocker therapy. • Data Sources: • VISREC and DRUGLOG eCRF forms.

plasma norepinephrine = assay: Plasma norepinephrine (HPLC with electrochemical detection); conditions: for Norepinephrine, ΔWeek 12 Mean ± SEM / Norepinephrine, ΔWeek 12 Median / Norepinephrine, ΔWeek 24 Mean ± SEM / Norepinephrine, ΔWeek 24 Median: change from baseline
[2] = Europe excluding Hungary (n = 48)

## COCCc1ccc(OCC(O)CNC(C)C)cc1 (stereo not drawn) [metoprolol, metoprolol succinate, reference compound]
[1]; 4, 12 and 24 weeks
  Heart rate reduction: greater heart rate reduction
[1]; in vivo
  Heart Rate, Baseline Mean ± SEM: 76.0 ± 1.5 bpm
  Heart Rate, Baseline Min, Max: 43.0, 119
  Systolic Blood Pressure, Baseline Mean ± SEM: 121.8 ± 1.4 mmHg
  Systolic Blood Pressure, Baseline Min, Max: 90.0, 149
Plasma norepinephrine; Canada
  Plasma norepinephrine, Week 4 Mean: 613 pg/mL
  Plasma norepinephrine, Week 4 Median: 605 pg/mL
  Plasma norepinephrine, change from baseline to Week 4, Mean ±SEM: -97 pg/mL
  Plasma norepinephrine, change from baseline to Week 4, Median: -59 pg/mL
Plasma norepinephrine; Canada (n = 59)
  Norepinephrine, Baseline Mean ± SD: 674 ± 429 pg/mL
  Norepinephrine, Baseline Median: 541 pg/mL
  Norepinephrine, Week 12 Mean ± SD: 577 ± 273 pg/mL
  Norepinephrine, Week 12 Median: 563 pg/mL
  Norepinephrine, Week 24 Mean ± SD: 722 ± 303 pg/mL
  Norepinephrine, Week 24 Median: 690 pg/mL
  Norepinephrine, ΔWeek 12 Mean ± SEM: -111 ± 57 pg/mL
  Norepinephrine, ΔWeek 12 Median: -85 pg/mL
  Norepinephrine, ΔWeek 24 Mean ± SEM: 18 ± 75 pg/mL
  Norepinephrine, ΔWeek 24 Median: -10 pg/mL
Plasma norepinephrine; Entire Cohort
  Change in NE at Week 4, median (Q1, Q3): −10 (198,121) pg/ml
  Plasma norepinephrine, Week 4 Mean: 617 pg/mL
  Plasma norepinephrine, Week 4 Median: 570 pg/mL
  Plasma norepinephrine, change from baseline to Week 4, Mean ±SEM: 36 ± 32 pg/mL
  Plasma norepinephrine, change from baseline to Week 4, Median: -10 pg/mL
Plasma norepinephrine; Entire Cohort (n = 267)
  Norepinephrine, Baseline Mean ± SD: 664 ± 359 pg/mL
  Norepinephrine, Baseline Median: 590 pg/mL
  Norepinephrine, Week 12 Mean ± SD: 605 ± 266 pg/mL
  Norepinephrine, Week 12 Median: 566 pg/mL
  Norepinephrine, Week 24 Mean ± SD: 690 ± 414 pg/mL
  Norepinephrine, Week 24 Median: 586 pg/mL
  Norepinephrine, ΔWeek 12 Mean ± SEM: -64 ± 30 pg/mL
  Norepinephrine, ΔWeek 12 Median: -57 pg/mL
  Norepinephrine, ΔWeek 24 Mean ± SEM: 2 ± 33 pg/mL
  Norepinephrine, ΔWeek 24 Median: -24 pg/mL
Plasma norepinephrine; Entire Cohort, listed as Met
  Plasma norepinephrine, change from baseline to Week 4, Mean ±SEM: -36 pg/mL
Plasma norepinephrine; Europe excluding Hungary
  Plasma norepinephrine, Week 4 Mean: 676 pg/mL
  Plasma norepinephrine, Week 4 Median: 612 pg/mL
  Plasma norepinephrine, change from baseline to Week 4, Mean ±SEM: -18 pg/mL
  Plasma norepinephrine, change from baseline to Week 4, Median: -12 pg/mL
Plasma norepinephrine; [2]
  Norepinephrine, Baseline Mean ± SD: 675 ± 250 pg/mL
  Norepinephrine, Baseline Median: 592 pg/mL
  Norepinephrine, Week 12 Mean ± SD: 640 ± 283 pg/mL
  Norepinephrine, Week 12 Median: 614 pg/mL
  Norepinephrine, Week 24 Mean ± SD: 904 ± 348 pg/mL
  Norepinephrine, Week 24 Median: 924 pg/mL
  Norepinephrine, ΔWeek 12 Mean ± SEM: -52 ± 65 pg/mL
  Norepinephrine, ΔWeek 12 Median: -76 pg/mL
  Norepinephrine, ΔWeek 24 Median: 232 pg/mL
Plasma norepinephrine; Hungary
  Plasma norepinephrine, Week 4 Mean: 530 pg/mL
  Plasma norepinephrine, Week 4 Median: 460 pg/mL
  Plasma norepinephrine, change from baseline to Week 4, Mean ±SEM: -35 pg/mL
  Plasma norepinephrine, change from baseline to Week 4, Median: -70 pg/mL
Plasma norepinephrine; Hungary (n = 33)
  Norepinephrine, Baseline Mean ± SD: 627 ± 258 pg/mL
  Norepinephrine, Baseline Median: 571 pg/mL
  Norepinephrine, Week 12 Mean ± SD: 716 ± 308 pg/mL
  Norepinephrine, Week 12 Median: 590 pg/mL
  Norepinephrine, Week 24 Mean ± SD: 716 ± 301 pg/mL
  Norepinephrine, Week 24 Median: 668 pg/mL
  Norepinephrine, ΔWeek 12 Mean ± SEM: 144 ± 89 pg/mL
  Norepinephrine, ΔWeek 12 Median: 37 pg/mL
  Norepinephrine, ΔWeek 24 Mean ± SEM: 148 ± 336 pg/mL
  Norepinephrine, ΔWeek 24 Median: -42 pg/mL
Plasma norepinephrine; U.S.
  Plasma norepinephrine, Week 4 Mean: 616 pg/mL
  Plasma norepinephrine, Week 4 Median: 556 pg/mL
  Plasma norepinephrine, change from baseline to Week 4, Mean ±SEM: -18 pg/mL
  Plasma norepinephrine, change from baseline to Week 4, Median: +29 pg/ml
Plasma norepinephrine; U.S. (n = 127)
  Norepinephrine, Baseline Mean ± SD: 664 ± 386 pg/mL
  Norepinephrine, Baseline Median: 599 pg/mL
  Norepinephrine, Week 12 Mean ± SD: 576 ± 246 pg/mL
  Norepinephrine, Week 12 Median: 560 pg/mL
  Norepinephrine, Week 24 Mean ± SD: 639 ± 472 pg/mL
  Norepinephrine, Week 24 Median: 519 pg/mL
  Norepinephrine, ΔWeek 12 Mean ± SEM: -100 ± 43 pg/mL
  Norepinephrine, ΔWeek 12 Median: -66 pg/mL
  Norepinephrine, ΔWeek 24 Mean ± SEM: -46 ± 40 pg/mL
  Norepinephrine, ΔWeek 24 Median: -46 pg/mL
Plasma norepinephrine; Week 4, any of the regions
  Within group NE change: not associated with a within group NE change
Plasma norepinephrine; week 12, entire cohort
  Reduction in NE: 57 pg/mL
